Test system: MSH3
Assay: QPCR assay for levels of MSH3 upon compound treatment in HEK293T or AD293 cells (fold-change of MSH3 transcript, EC50 of MSH3 downregulation; total MSH3 exons 13/14, exons 20/21; Table 8)
Type: cell-based
Details: for mrna remaining at 1 µM / mrna remaining at 10 µM: Homo sapiens, fold-change of the MSH3 transcript, normalized to GAPDH; for mrna remaining at 1 µM: 1 μM compound; for mrna remaining at 10 µM: 10 μM compound; for EC50: EC50 of MSH3 downregulation, XtalPi
In short: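 MSH3 mRNA was quantified by TaqMan qPCR covering exons 13/14, exons 20/21, exon 13/PE14A and exon 20/PE21A, with GAPDH as reference. Cells used were HEK293T or AD293, treated with compound at 1 μM and […].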

EC50 [nM] | Compound | mrna remaining at 1 µM [%] | mrna remaining at 10 µM [%]
– | Cc1nn(C)nc1-c1cnc2c(c1)C(=O)N(c1ccc(N3C[C@H]4CC[C@@H](C3)N4)nn1)C2 [Compound 568, 6-(6-((1R,5S)-3,8-diazabicyclo[3.2.1]octan-3-yl)pyridazin-3-yl)-3-(2,5-dimethyl-2H-1,2,3-triazol-4-yl)-6,7-dihydro-5H-pyrrolo[3,4-b]pyridin-5-one] | 77 | 46
349 | CN(c1ccc(N2Cc3ncc(-c4nn(C)nc4Cl)cc3C2=O)nn1)[C@H]1C[C@]2(C)CC[C@](C)(C1)N2 [Compound 589, 3-(5-chloro-2-methyl-2H-1,2,3-triazol-4-yl)-6-(6-(((1R,3s,5S)-1,5-dimethyl-8-azabicyclo[3.2.1]octan-3-yl)(methyl)amino)pyridazin-3-yl)-6,7-dihydro-5H-pyrrolo[3,4-b]pyridin-5-one] | 20 | 11
569 | Cc1nn(C)nc1-c1cnc2c(n1)C(=O)N(c1ccc(N(C)[C@H]3C[C@]4(C)CC[C@](C)(C3)N4)nn1)C2 [Compound 590, 3-(2,5-dimethyl-2H-1,2,3-triazol-4-yl)-6-(6-(((1R,3s,5S)-1,5-dimethyl-8-azabicyclo[3.2.1]octan-3-yl)(methyl)amino)pyridazin-3-yl)-6,7-dihydro-5H-pyrrolo[3,4-b]pyrazin-5-one] | 24 | 9
634 | Cc1cn(-c2cc(C#N)c3c(c2)C(=O)N(c2ccc(O[C@H]4C[C@]5(C)CC[C@](C)(C4)N5)nn2)C3)nn1 [Compound 591, 2-(6-(((1R,3s,5S)-1,5-dimethyl-8-azabicyclo[3.2.1]octan-3-yl)oxy)pyridazin-3-yl)-6-(4-methyl-1H-1,2,3-triazol-1-yl)-1-oxoisoindoline-4-carbonitrile] | 109 | 91
– | Cc1nn(C)nc1-c1ncc2c(n1)C(=O)N(c1ccc(O[C@H]3C[C@]4(C)CC[C@](C)(C3)N4)nn1)C2 [Compound 592, 2-(2,5-dimethyl-2H-1,2,3-triazol-4-yl)-6-(6-(((1R,3s,5S)-1,5-dimethyl-8-azabicyclo[3.2.1]octan-3-yl)oxy)pyridazin-3-yl)-5,6-dihydro-7H-pyrrolo[3,4-d]pyrimidin-7-one] | 90 | 54
– | Cc1nn(C)cc1-c1cc2c(cn1)CN(c1ccc(OC3CC(C)(C)NC4(CCC4)C3)nn1)C2=O (stereo not shown) [Compound 593, 6-(1,3-dimethyl-1H-pyrazol-4-yl)-2-(6-((6,6-dimethyl-5-azaspiro[3.5]nonan-8-yl)oxy)pyridazin-3-yl)-2,3-dihydro-1H-pyrrolo[3,4-c]pyridin-1-one] | 105 | 34
– | CC(C)(O)Cn1cc(-c2cc3c(cn2)CN(c2ccc(O[C@H]4C[C@]5(C)CC[C@](C)(C4)N5)nn2)C3=O)cn1 [Compound 594, 2-(6-(((1R,3s,5S)-1,5-dimethyl-8-azabicyclo[3.2.1]octan-3-yl)oxy)pyridazin-3-yl)-6-(1-(2-hydroxy-2-methylpropyl)-1H-pyrazol-4-yl)-2,3-dihydro-1H-pyrrolo[3,4-c]pyridin-1-one] | 79 | 112
– | Cc1nn(C)cc1-c1cc2c(nn1)CN(c1ccc(O[C@H]3C[C@]4(C)CC[C@](C)(C3)N4)nn1)C2=O [Compound 595, 3-(1,3-dimethyl-1H-pyrazol-4-yl)-6-(6-(((1R,3s,5S)-1,5-dimethyl-8-azabicyclo[3.2.1]octan-3-yl)oxy)pyridazin-3-yl)-6,7-dihydro-5H-pyrrolo[3,4-c]pyridazin-5-one] | 91 | 18
– | Cc1nn(C)nc1-c1cc2c(nn1)CN(c1ccc(O[C@H]3C[C@]4(C)CC[C@](C)(C3)N4)nn1)C2=O [Compound 596, 3-(2,5-dimethyl-2H-1,2,3-triazol-4-yl)-6-(6-(((1R,3s,5S)-1,5-dimethyl-8-azabicyclo[3.2.1]octan-3-yl)oxy)pyridazin-3-yl)-6,7-dihydro-5H-pyrrolo[3,4-c]pyridazin-5-one] | 88 | 106
– | Cc1nn(C)cc1-c1cnc2c(c1)C(=O)N(c1ccc(OC3CC(C)(C)NC4(CCC4)C3)nn1)C2 (stereo not shown) [Compound 597, 3-(1,3-dimethyl-1H-pyrazol-4-yl)-6-(6-((6,6-dimethyl-5-azaspiro[3.5]nonan-8-yl)oxy)pyridazin-3-yl)-6,7-dihydro-5H-pyrrolo[3,4-b]pyridin-5-one] | 98 | 29
– | Cc1ncc(-c2cnc3c(c2)C(=O)N(c2ccc(O[C@H]4C[C@]5(C)CC[C@](C)(C4)N5)nn2)C3)s1 [Compound 598, 6-(6-(((1R,3s,5S)-1,5-dimethyl-8-azabicyclo[3.2.1]octan-3-yl)oxy)pyridazin-3-yl)-3-(2-methylthiazol-5-yl)-6,7-dihydro-5H-pyrrolo[3,4-b]pyridin-5-one] | 62 | 52
– | Cn1ncc(-c2cnc3c(c2)C(=O)N(c2ccc(O[C@H]4C[C@]5(C)CC[C@](C)(C4)N5)nn2)C3)n1 [Compound 599, 6-(6-(((1R,3s,5S)-1,5-dimethyl-8-azabicyclo[3.2.1]octan-3-yl)oxy)pyridazin-3-yl)-3-(2-methyl-2H-1,2,3-triazol-4-yl)-6,7-dihydro-5H-pyrrolo[3,4-b]pyridin-5-one] | 94 | 24
– | Cc1nn(C)nc1-c1cnc2c(c1)C(=O)N(c1ccc(N3CCN[C@@H](C(C)(C)C)C3)nn1)C2 [Compound 600, (S)-6-(6-(3-(tert-butyl)piperazin-1-yl)pyridazin-3-yl)-3-(2,5-dimethyl-2H-1,2,3-triazol-4-yl)-6,7-dihydro-5H-pyrrolo[3,4-b]pyridin-5-one] | 104 | 14
– | Cn1ncc(-c2cnc3c(c2)C(=O)N(c2ccc(OC4CC(C)(C)NC5(CCC5)C4)nn2)C3)n1 (stereo not shown) [Compound 601, 6-(6-((6,6-dimethyl-5-azaspiro[3.5]nonan-8-yl)oxy)pyridazin-3-yl)-3-(2-methyl-2H-1,2,3-triazol-4-yl)-6,7-dihydro-5H-pyrrolo[3,4-b]pyridin-5-one] | 117 | 82
– | Cc1nn(C)cc1-c1cnc2c(c1)C(=O)N(c1ccc(N3CCN[C@@H](C(C)C)C3)nn1)C2 [Compound 602, (S)-3-(1,3-dimethyl-1H-pyrazol-4-yl)-6-(6-(3-isopropylpiperazin-1-yl)pyridazin-3-yl)-6,7-dihydro-5H-pyrrolo[3,4-b]pyridin-5-one] | 64 | 29
– | Cc1nn(C)nc1-c1cnc2c(c1)C(=O)N(c1ccc(N3CCC4(CCCN4)CC3)nn1)C2 [Compound 603, 6-(6-(1,8-diazaspiro[4.5]decan-8-yl)pyridazin-3-yl)-3-(2,5-dimethyl-2H-1,2,3-triazol-4-yl)-6,7-dihydro-5H-pyrrolo[3,4-b]pyridin-5-one] | 155 | 94
– | CN(c1ccc(N2Cc3ncc(-c4cnn(CC(C)(C)O)c4)cc3C2=O)nn1)[C@H]1C[C@]2(C)CC[C@](C)(C1)N2 [Compound 604, 6-(6-(((1R,3s,5S)-1,5-dimethyl-8-azabicyclo[3.2.1]octan-3-yl)(methyl)amino)pyridazin-3-yl)-3-(1-(2-hydroxy-2-methylpropyl)-1H-pyrazol-4-yl)-6,7-dihydro-5H-pyrrolo[3,4-b]pyridin-5-one] | 63 | 93
– | Cn1nc(Cl)c(-c2cnc3c(c2)C(=O)N(c2ccc(O[C@@H]4CCC(C)(C)NC(C)(C)C4)nn2)C3)n1 [Compound 605, (R)-3-(5-chloro-2-methyl-2H-1,2,3-triazol-4-yl)-6-(6-((2,2,7,7-tetramethylazepan-4-yl)oxy)pyridazin-3-yl)-6,7-dihydro-5H-pyrrolo[3,4-b]pyridin-5-one] | 82 | 56
– | Cn1ncc(-c2cnc3c(c2)C(=O)N(c2ccc(S[C@H]4C[C@]5(C)CC[C@](C)(C4)N5)nn2)C3)n1 [Compound 606, 6-(6-(((1R,3s,5S)-1,5-dimethyl-8-azabicyclo[3.2.1]octan-3-yl)thio)pyridazin-3-yl)-3-(2-methyl-2H-1,2,3-triazol-4-yl)-6,7-dihydro-5H-pyrrolo[3,4-b]pyridin-5-one] | 57 | 25
– | Cn1nc(Cl)c(-c2cnc3c(c2)C(=O)N(c2ccc(O[C@H]4CCC(C)(C)NC(C)(C)C4)nn2)C3)n1 [Compound 607, (S)-3-(5-chloro-2-methyl-2H-1,2,3-triazol-4-yl)-6-(6-((2,2,7,7-tetramethylazepan-4-yl)oxy)pyridazin-3-yl)-6,7-dihydro-5H-pyrrolo[3,4-b]pyridin-5-one] | 72 | 9
– | Cn1cc(-c2cnc3c(c2)C(=O)N(c2ccc(OC4CC(C)(C)NC(C)(C)C4)nn2)C3)c(Cl)n1 [Compound 608, 3-(3-chloro-1-methyl-1H-pyrazol-4-yl)-6-(6-((2,2,6,6-tetramethylpiperidin-4-yl)oxy)pyridazin-3-yl)-6,7-dihydro-5H-pyrrolo[3,4-b]pyridin-5-one] | 86 | 20
– | CN(c1ccc(N2Cc3ncc(-c4cn(C)nc4Cl)cc3C2=O)nn1)[C@H]1C[C@]2(C)CC[C@](C)(C1)N2 [Compound 609, 3-(3-chloro-1-methyl-1H-pyrazol-4-yl)-6-(6-(((1R,3s,5S)-1,5-dimethyl-8-azabicyclo[3.2.1]octan-3-yl)(methyl)amino)pyridazin-3-yl)-6,7-dihydro-5H-pyrrolo[3,4-b]pyridin-5-one] | 39 | 7
– | Cn1nc(Cl)c(-c2cnc3c(c2)C(=O)N(c2ccc(S[C@H]4C[C@]5(C)CC[C@](C)(C4)N5)nn2)C3)n1 [Compound 610, 3-(5-chloro-2-methyl-2H-1,2,3-triazol-4-yl)-6-(6-(((1R,3s,5S)-1,5-dimethyl-8-azabicyclo[3.2.1]octan-3-yl)thio)pyridazin-3-yl)-6,7-dihydro-5H-pyrrolo[3,4-b]pyridin-5-one] | 93 | 66
